Experimental data taken from PubChem BioAssay (NCI).
Values joined by “and” are separate entries in the source; they are usually repeats but may differ in a detail not shown here. Equal values may be shown once.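 How tested: cells in 96-well plates exposed to compound for 48 hours at five concentrations. Here, GI50 denotes the concentration required for 50% inhibition of growth. TGI: concentration producing complete growth inhibition.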

These molecules were tested on EKVX NSCLC (assay: NCI-60 cell line screen, 48 h).
`Cc1ccc(-c2cc(-c3ccco3)c(C#N)c(=S)n2C2OC(CO)C(O)C(O)C2O)cc1` (stereo unspecified) was tested, and the TGI was greater than 100 µM. `Cc1oc2c(cc(O)c3cc(O)ccc32)c2cccc1-2` was tested, and the TGI was greater than 100 µM. In the case of `NC(N)=Nc1ccc(CC(N)NCC(=O)O)cc1` (stereo unspecified), the TGI is reported as greater than 25 µM. Molecule `O=C(Cc1ccc(O)c(O)c1)NCc1c[nH]c2ccccc12` has a TGI greater than 100 µM. For `COc1nncc2[nH]c(-c3ccccc3)cc12`, the TGI was greater than 100 µM. With `O=C(NCc1ccccc1)c1n[nH][nH]c1=O` the TGI was greater than 100 µM. For `O=S(=O)(c1ccccc1)c1cccc2c1NCCC2`, the TGI was greater than 100 µM. `COP(=O)(OC)C1=c2c(C)noc2=C2C=COC2C1=O` (stereo unspecified) showed a TGI greater than 100 µM. Molecule `CCOC(=O)N1CCN(Cc2cc(=O)n3ccc(C)cc3n2)CC1` has a TGI greater than 100 µM. For `COc1cccc(C2SC(N)=Nc3c2c(C)nn3C(=O)c2ccccc2O)c1` (stereo unspecified), the TGI was greater than 10 µM.

The molecules below were run on RPMI-8226 leukemia (assay: NCI-60 cell line screen, 48 h).
`CCOC(=O)c1c(CN2CCCC2)n(-c2ccccc2)c2cc(Br)c(O)cc12` was tested, and the TGI was 39.5 µM. `Nn1c(-c2ccccc2)n[nH]c1=O` was tested, and the TGI was greater than 100 µM. Work on `Cc1cc(-c2nc3ccc(F)cc3s2)ccc1NC(=O)[C@H](C)N` yielded a TGI of 13.8 µM. Molecule `Cc1cc(C)nc(NS(=O)(=O)c2ccc(NC(=O)c3ccc4nc5ccccc5c(Nc5ccc(S(N)(=O)=O)cc5)c4c3)cc2)n1` has a TGI greater than 100 µM. `Nc1c(-c2ccc(Cl)c(Cl)c2)c2ccc([N+](=O)[O-])cc2c(=O)n1-c1nc2ccccc2s1` showed a TGI greater than 100 µM. `NS(=O)(=O)c1nnc(NC(=O)Nc2ccc(Cl)c(Cl)c2)s1` gave a TGI of 51.5 µM. Work on `COC(=O)c1c(C)nc2c1cc(O)c1[nH]c(C)c(C)nc12` yielded a TGI greater than 100 µM. `Cn1c2ccc3cc2c(=S)c2cc(ccc21)OCCOCCOCCOCCOCCOCCO3` was tested, and the TGI was greater than 10 µM. `O=[N+]([O-])c1cc(C=NC23CC4CC(CC(C4)C2)C3)ccc1Cl` gave a TGI of 16.8 µM. With `CCCCCC1=CC(=O)C1(Cl)Cl` the TGI was 7.87 µM. Molecule `CC(=O)N(C(=O)CC(=O)N1N=C(c2ccccc2)C(N=Nc2ccccc2[N+](=O)[O-])C1=O)c1ccc(Cl)cc1` (stereo unspecified) has a TGI greater than 10 µM. Work on `CC(=O)N1C(C(=O)NC2CCCCC2)CSC1c1ccccc1` (stereo unspecified) yielded a TGI greater than 100 µM. Molecule `COc1ncc(/C=C2\OC(=O)c3ccccc32)c(OC)n1` has a TGI greater than 100 µM. `CC(=O)Nn1c(=S)[nH]c2ccccc21` was tested, and the TGI was greater than 100 µM. Molecule `C[C@]12CCC3C4=C(CCC3C1CCC2=O)C(=O)[C@H]1O[C@H]1C4=O` (stereo partly specified) has a TGI of 4.25 µM. In the case of `CCCCOC(=O)Nc1ccc(S(=O)(=O)Nc2ccccc2Cl)cc1`, the TGI is reported as 36.8 µM. `CC(C)c1cc2c(cc1S(=O)(=O)O)[C@@]1(C)CCC[C@@](C)(C(=O)O)C1CC2` (stereo partly specified) showed a TGI greater than 100 µM. Work on `N#CC(Cc1ccccc1)N(CCC1=CCCCC1)C(c1ccccc1)c1ccccc1` (stereo unspecified) yielded a TGI greater than 100 µM. For `C/C(=C\CBr)CCC(Br)C(C)(C)Br` (stereo unspecified), the TGI was greater than 100 µM. `C#CCn1c(=O)c2ccccc2n(CC#C)c1=O` showed a TGI greater than 10 µM. Work on `[N-]=[N+]=NC(c1ccccc1)(c1ccccc1)c1ccccc1` yielded a TGI of 62.6 µM. `CC1CN(C)c2ccccc2N=C1NN` (stereo unspecified) gave a TGI greater than 100 µM. `CC(=O)c1c2c(c3ccccc3c1O)O[C@@H]1OCC[C@H]21` gave a TGI greater than 100 µM. Molecule `C[C@]12CC[C@H](O)CC1=CC[C@@H]1[C@@H]2CC[C@]2(C)C(=N/N)/C(=N\O)C[C@@H]12` has a TGI greater than 100 µM. For `Cc1ccc(NC(=O)c2ccc(OP(=O)(O)Nc3ccc(C)cc3)cc2)cc1`, the TGI was greater than 100 µM. For `COc1ccc(CN2C(=O)/C(=C\c3cc(OC)c(OC)c(OC)c3)c3ccccc32)cc1`, the GI50 was 2.47 µM and the TGI was 7.57 µM. `Cc1ccnc(NS(=O)(=O)c2ccc(N=[N+]=[N-])cc2)n1` gave a TGI greater than 100 µM. With `Cc1ccccc1C(=N)c1ccccc1Cc1cccc2ccccc12` the TGI was 33.3 µM. For `CCC(=O)NCC1CCCN2CCCCC12` (stereo unspecified), the TGI was greater than 100 µM. `O=C(C1OC1c1ccc(Br)cc1O)C12CC3CC(CC(C3)C1)C2` (stereo unspecified) was tested, and the TGI was 47.5 µM. For `Cc1ccc(N(Cc2ccccc2)Cc2ccccc2)cc1`, the TGI was 43.6 µM. For `CC(C)=CCC[C@@H](C)c1c(O)c(O)c(C)c2nccnc12`, the TGI was greater than 62.7 µM. `S=C(N/N=C(/c1ccccc1)c1ccccn1)N(Cc1ccccn1)Cc1ccccn1` gave a TGI of 3.38 µM. With `Cc1ccc(-c2cc(-c3ccco3)c(C#N)c(=S)n2C2OC(CO)C(O)C(O)C2O)cc1` (stereo unspecified) the TGI was > 100 µM and 89.8 µM. `Cc1oc2c(cc(O)c3cc(O)ccc32)c2cccc1-2` showed a TGI greater than 100 µM. Molecule `NC(N)=Nc1ccc(CC(N)NCC(=O)O)cc1` (stereo unspecified) has a TGI greater than 25 µM. Work on `O=C(Cc1ccc(O)c(O)c1)NCc1c[nH]c2ccccc12` yielded a TGI greater than 100 µM. Molecule `COc1nncc2[nH]c(-c3ccccc3)cc12` has a TGI greater than 100 µM. `O=C(NCc1ccccc1)c1n[nH][nH]c1=O` was tested, and the TGI was greater than 100 µM. `O=S(=O)(c1ccccc1)c1cccc2c1NCCC2` showed a TGI greater than 100 µM. `COP(=O)(OC)C1=c2c(C)noc2=C2C=COC2C1=O` (stereo unspecified) gave a TGI greater than 100 µM. `CCOC(=O)N1CCN(Cc2cc(=O)n3ccc(C)cc3n2)CC1` was tested, and the TGI was greater than 100 µM. `COc1cccc(C2SC(N)=Nc3c2c(C)nn3C(=O)c2ccccc2O)c1` (stereo unspecified) was tested, and the TGI was greater than 10 µM.

These molecules were tested on SK-MEL-5 melanoma (assay: NCI-60 cell line screen, 48 h).
`CCOC(=O)c1c(CN2CCCC2)n(-c2ccccc2)c2cc(Br)c(O)cc12` gave a TGI of 26.4 µM. `Nn1c(-c2ccccc2)n[nH]c1=O` was tested, and the TGI was greater than 100 µM.
